Data reported in patent publication US8592435B2, “Nitrogen-containing six-membered aromatic ring derivatives and pharmaceutical products containing the same” (Daiichi Sankyo Company, Limited, priority 2007, dated 2013).
Counter-ions that a name gives are not always drawn.

What was measured:
spinal cord neurons = test: Test Example 3: ability to promote the neurite outgrowth of spinal cord neurons; type: cell-based, Wistar rats; details: for Promotion of spinal cord neurite outgrowth (%): Compound Conc. = 0.1 μM, % of control, day 3
Procedure: According to the method of Martin G. Hanson Jr. [J. Neurosci., 1998 Sep. 15; 18(18): 7361-71], the spinal cord region was isolated from 15-day embryos of female Wistar rats and the cells were dispersed using the papain dissociation system. Neurons were collected using 6.8% Metrizamide density gradient and were suspended in 2% FBS+Leibovitz's −15 medium so that the density of the cells will be 2×10^3 cells/well/200 μL. 200 μL of the cell suspension was inoculated on a poly-D-lysine/laminin-coated 96 well plate and the plate was incubated in an incubator at 37° C. Test compounds were added 1 hour after seeding of cells.
On day 3 of the incubation period, neurons were stained with Calcein-AM and the lengths of neurites were determined using IN Cell Analyzer (GE Healthcare Bioscience).
The ability (%) of each test compound to promote neurite outgrowth was calculated from the following equation: The ability to promote neurite outgrowth (%)=[(measurement with a compound of interest)/(measurement of control)]×100
Example Compounds 65, 71, 74, 92, 130 and 135 were used as test compounds and were each added at a concentration of 0.1 μM.
The results are shown in Table 27. bFGF gives a measurement of about 130 in this test.

hippocampal neurons = test: Test Example 1: ability to promote axonal outgrowth; type: cell-based, Wistar rats; details: for activity at 3 µM: Compound Conc. = 3 μM
Procedure: According to the method of M. P. Mattson [M. P. Mattson, Brain Res. Rev., 13, 179, (1988)], the hippocampal region was isolated from 18-day embryos of female Wistar rats and the neurons were dispersed using the papain dissociation system. Hippocampal neuron were suspended in 5% Nu-serum+B27 supplement+Neurobasal medium at 5×10^4 cells/well/2 mL. 2 mL of the cell suspension were inoculated on a poly-D-lysine-coated 36φ dish and the neuron were incubated at 37° C. in a 5% CO2 incubator.
On day 3 of the incubation period, 1 mL of the culture medium was replaced with 1 mL of 5% Nu-serum+B27 supplement+Neurobasal medium containing 2 mM AraC. Each test compound was added to the culture on day 3 and day 7 of the incubation period. On day 9, cells were fixed in a 4% paraformaldehyde solution. The nerve axons of the fixed cells were stained with the Rabbit anti-growth-associated protein-43 polyclonal antibody and the stained cells were quantified using Kurabo neuron outgrowth-quantication software.
The ability (%) of each test compound to promote axonal outgrowth was calculated from the following equation: The ability to promote axonal outgrowth (%)=[(measurement with a compound of interest)/(measurement of control)]×100
Example Compounds shown in Table 25 were used as test compounds and were each added at concentrations of 3 μM and 0.3 μM.
Since bFGF gives a measurement of about 120 in this test, 120 is used as the threshold to determine whether a given compound has the ability to promote axonal outgrowth

[1] = system: mixture of human vascular endothelial cells and fibroblasts; test: Test Example 2: ability to promote angiogenesis (angiogenesis test kit KZ-1000); type: cell-based; details: for activity at 3 µM / activity at 0.3 µM: Homo sapiens, 216 h, lumen length, % of control, day 9, read-out: Promotion of angiogenesis (%); for activity at 3 µM: Compound Conc. = 3 μM; for activity at 0.3 µM: Compound Conc. = 0.3 μM
Procedure: Using an angiogenesis test kit containing a mixture of human vascular endothelial cells and fibroblasts [KZ-1000; Kurabo], the ability of test compounds to promote angiogenesis was evaluated. Each test compound was added on days 1, 4, and 7 of the incubation period. On day 9, cells were immunostained with CD31 and photographed. Control cells were cultured under the same conditions, only without the addition of a test compound, and photographed.
The lumen length of the blood vessel was quantified from the obtained images using an angiogenesis-quantification software. The ability (%) of each test compound to promote angiogenesis was calculated from the following equation: The ability to promote angiogenesis (%)=[(measurement with a compound of interest)/(measurement of control)]×100
Example Compounds shown in Table 26 were used as test compounds.
Since bFGF gives a measurement of about 120 in this test, 120 is used as the threshold to determine whether a given compound has the ability to promote angiogenesis.

chemokine receptor CCR3 = target: T1, chemokine receptor CCR3 (Homo sapiens, UniProt P51677); test: Affinity to chemokine receptor CCR3; type: binding; details: at a concentration of 10 μM
T1 sequence (P51677 1-355): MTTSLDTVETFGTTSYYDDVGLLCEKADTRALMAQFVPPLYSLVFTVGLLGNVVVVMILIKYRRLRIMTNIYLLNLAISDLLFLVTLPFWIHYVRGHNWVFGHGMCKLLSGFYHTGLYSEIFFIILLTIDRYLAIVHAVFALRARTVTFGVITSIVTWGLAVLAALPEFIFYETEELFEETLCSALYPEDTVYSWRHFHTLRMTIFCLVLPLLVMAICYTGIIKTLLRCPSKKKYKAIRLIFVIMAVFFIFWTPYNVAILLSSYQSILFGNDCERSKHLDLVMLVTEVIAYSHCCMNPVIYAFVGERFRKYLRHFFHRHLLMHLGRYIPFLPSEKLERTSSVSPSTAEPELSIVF
Description: Although the compounds of the present invention are novel compounds, compounds having a partly similar skeleton are described, for example, in Published Japanese Translation of PCT International Application No. 2003-507456, WO 01/79170 and WO 00/23076.

[2] = system: critical limb ischemia model (left femoral artery excised); test: Test Example 4: lower limb ischemia (critical limb ischemia) model in mice; type: in vivo, Balb/c mice; details: oral once daily 0.1 or 1.0 mg/kg for 10 days from femoral artery excision, vs Vehicle
Procedure: According to the method of Ichiro Masaki [Circ Res. 90; 966-973 (2002)], the left femoral artery of Balb/c mice was excised to establish a model of critical limb ischemia (n=29 to 30).
Test compounds used were Example Compounds 65, 92, 114, 130, 135 and 136, each of which was orally administered once daily at a dose of 0.1 mg/kg or 1.0 mg/kg for 10 days starting from the day of femoral artery excision.
The results are shown in FIGS. 1 to 6 in which FIGS. 1, 2, 3, 4, 5 and 6 show the results of Example Compounds 65, 92, 114, 130, 135 and 136, respectively.
In the figures, a thick solid line indicates a Vehicle group, a thin dotted line indicates a group administered 0.1 mg/kg/day of each compound, and a thin solid line indicates a group administered 1.0 mg/kg/day of each compound.
*: P<0.05, **: P<0.01, ***: P<0.001 vs Vehicle by Wilcoxon's test.

[3] = Hippocampal neuron, 216 h, % of control, rat hippocampal neurons, day 9, read-out: Promotion of axonal outgrowth (%)
[4] = reference, concentration not given, used as threshold

Molecule: Cc1nc(OCC(=O)N(C)C2CCN(CC3CCCCC3)CC2)nc(C)c1N [Compound 71, 2-(5-amino-4,6-dimethylpyrimidine-2-yloxy)-N-(1-(cyclohexylmethyl)piperidine-4-yl)-N-methylacetamide]
- Promotion of spinal cord neurite outgrowth (%) (spinal cord neurons): 139%
- activity at 3 µM (hippocampal neurons; [3]): 140%
- activity at 3 µM [1]: 126%

Molecule: Cc1nc(OCC(=O)N(C)C2CCN(C(=O)c3ccccc3)CC2)nc(C)c1N [Compound 74, 2-(5-amino-4,6-dimethylpyrimidine-2-yloxy)-N-(1-benzoylpiperidine-4-yl)-N-methylacetamide]
- Promotion of spinal cord neurite outgrowth (%) (spinal cord neurons): 125%
- activity at 3 µM (hippocampal neurons; [3]): 159%
- activity at 3 µM [1]: 136%

Molecule: Cc1nc(OCC(=O)N(C)C2CCN(Cc3ccc(F)cc3)CC2)nc(C)c1N [Compound 85, 2-(5-amino-4,6-dimethylpyrimidine-2-yloxy)-N-(1-(4-fluorobenzyl)piperidine-4-yl)-N-methylacetamide]
- affinity to chemokine receptor CCR3 (chemokine receptor CCR3): 2.4%
- activity at 3 µM (hippocampal neurons; [3]): 140%
- activity at 3 µM [1]: 123%

Molecule: Cc1nc(OCC(=O)N(C)C2CCN(Cc3cc(F)c(F)c(F)c3)CC2)nc(C)c1N [Compound 91, 2-(5-amino-4,6-dimethylpyrimidine-2-yloxy)-N-methyl-N-(1-(3,4,5-trifluorobenzyl)piperidine-4-yl)acetamide]
- affinity to chemokine receptor CCR3 (chemokine receptor CCR3): 18%
- activity at 3 µM (hippocampal neurons; [3]): 150%
- activity at 3 µM [1]: 124%

Molecule: Cc1nc(OCC(=O)N(C)C2CCN(C(=O)C3CC3)CC2)nc(C)c1N [Compound 92, 2-(5-amino-4,6-dimethylpyrimidine-2-yloxy)-N-(1-(cyclopropanecarbonyl)piperidine-4-yl)-N-methylacetamide]
- survival rate of lower limb [2]: increased survival rate
- Promotion of spinal cord neurite outgrowth (%) (spinal cord neurons): 120%
- activity at 3 µM (hippocampal neurons; [3]): 127%
- activity at 3 µM [1]: 153%

Molecule: Cc1cc(C)nc(OCC(=O)N(C)C2CCN(Cc3ccccc3)CC2)n1 [Compound 95, N-(1-benzylpiperidine-4-yl)-2-(4,6-dimethylpyrimidine-2-yloxy)-N-methylacetamide hydrochloride]
- activity at 3 µM (hippocampal neurons; [3]): 201%
- activity at 3 µM [1]: 133%

Molecule: Cc1nc(=O)n(CC(=O)N(C)C2CCN(Cc3ccccc3)CC2)c(C)c1N [Compound 97, 2-(5-amino-4,6-dimethyl-2-oxopyrimidine-1(2H)-yl)-N-(1-benzylpiperidine-4-yl)-N-methylacetamide]
- activity at 3 µM (hippocampal neurons; [3]): 127%
- activity at 3 µM [1]: 134%

Molecule: Cc1nc(OC(C)C(=O)N(C)C2CCN(CC3CC3)CC2)nc(C)c1N (centres unmarked) [Compound 98, 2-(5-amino-4,6-dimethylpyrimidine-2-yloxy)-N-(1-(cyclopropylmethyl)piperidine-4-yl)-N-methylpropanamide]
- activity at 3 µM (hippocampal neurons; [3]): 130%
- activity at 0.3 µM [1]: 129%

Molecule: CNc1c(C)nc(OC(C)C(=O)N(C)C2CCN(Cc3ccccc3)CC2)nc1C (centres unmarked) [Compound 100, N-(1-benzylpiperidine-4-yl)-2-(4,6-dimethyl-5-(methylamino)pyrimidine-2-yloxy)-N-methylpropanamide]
- activity at 3 µM (hippocampal neurons; [3]): 128%
- activity at 0.3 µM [1]: 116%

Molecule: Cc1nc(OCC(=O)NC2CCN(C(=O)c3ccc(F)cc3)CC2)nc(C)c1N [Compound 102, 2-(5-amino-4,6-dimethylpyrimidine-2-yloxy)-N-(1-(4-fluorobenzoyl)piperidine-4-yl)acetamide]
- affinity to chemokine receptor CCR3 (chemokine receptor CCR3): 0.0%
- activity at 3 µM (hippocampal neurons; [3]): 233%

Molecule: Cc1cnc(Cl)nc1NCC(=O)N(C)C1CCN(Cc2ccccc2)CC1 [Compound 109, N-(1-benzylpiperidine-4-yl)-2-(2-chloro-5-methylpyrimidine-4-ylamino)-N-methylacetamide]
- affinity to chemokine receptor CCR3 (chemokine receptor CCR3): 16%
- activity at 3 µM (hippocampal neurons; [3]): 159%
- activity at 3 µM [1]: 124%

Molecule: Cc1cnc(N)nc1NCC(=O)N(C)C1CCN(Cc2ccccc2)CC1 [Compound 111, 2-(2-amino-5-methylpyrimidine-4-ylamino)-N-(1-benzylpiperidine-4-yl)-N-methylacetamide maleate]
- activity at 0.3 µM (hippocampal neurons; Hippocampal neuron, 216 h, Compound Conc. = 0.3 μM, % of control, rat hippocampal neurons, day 9, read-out: Promotion of axonal outgrowth (%)): 118%
- activity at 3 µM [1]: 121%

Molecule: CN(C(=O)Cn1cc(F)c(N)nc1=O)C1CCN(Cc2ccccc2)CC1 [Compound 114, 2-(4-amino-5-fluoro-2-oxopyrimidine-1(2H)-yl)-N-(1-benzylpiperidine-4-yl)-N-methylacetamide]
- survival rate of lower limb [2]: increased survival rate
- activity at 3 µM (hippocampal neurons; [3]): 183%
- activity at 3 µM [1]: 125%

Molecule: Cc1cc([N+](=O)[O-])cnc1NCC(=O)N(C)C1CCN(Cc2ccccc2)CC1 [Compound 123, N-(1-benzylpiperidine-4-yl)-N-methyl-2-(3-methyl-5-nitropyridine-2-ylamino)acetamide]
- activity at 3 µM (hippocampal neurons; [3]): 131%
- activity at 3 µM [1]: 132%

Molecule: CN(C(=O)COc1nccnc1Cl)C1CCN(Cc2ccccc2)CC1 [Compound 128, N-(1-benzylpiperidine-4-yl)-2-(3-chloropyrazine-2-yloxy)-N-methylacetamide hydrochloride]
- activity at 3 µM (hippocampal neurons; [3]): 156%
- activity at 0.3 µM [1]: 115%

Molecule: CN(C)c1ccc(OCC(=O)N(C)C2CCN(C(=O)C3CC3)CC2)nn1 [Compound 136, N-(1-(cyclopropanecarbonyl)piperidine-4-yl)-2-(6-(dimethylamino)pyridazine-3-yloxy)-N-methylacetamide]
- survival rate of lower limb [2]: increased survival rate
- activity at 3 µM (hippocampal neurons; [3]): 133%
- activity at 0.3 µM [1]: 110%

Molecule: bFGF: basic fibroblast growth factor (bFGF), a growth factor known to promote angiogenesis; reference that sets the threshold
- Promotion of spinal cord neurite outgrowth, measurement of bFGF in this test (spinal cord neurons; reference, concentration not given): about 130%
- Promotion of axonal outgrowth, measurement of bFGF in this test (hippocampal neurons; [4]): about 120%
- Promotion of angiogenesis, measurement of bFGF in this test [1, 4]: about 120%
